# In patent publication US20230286973A1, “PROTEIN SECRETION INHIBITORS” (KEZAR LIFE SCIENCES, priority 2020, published 2023):
# Like-named read-outs stand apart in the source and are kept apart here.
# What was measured:
# [1] = system: PD1-ss+10aa/Gaussia Luciferase; experiment: Dox-Induced PD1-ss-Gluc Assay; assay type: cell-based
# Summary of the method: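 The cell line was made by transfecting Flp-In 293 T-REx cells with a PD1 signal sequence+10aa–Gaussia luciferase fusion under T-REx control and selecting with hygromycin and blasticidin. Cells were seeded, and next day compound plus doxycycline was added at 37 °C, 5% CO2.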
# [2] = system: TNFα-FL/Gaussia Luciferase; experiment: Dox Induced TNFα-FL-Gluc Assay; assay type: cell-based; details: for IC50: 24 hr Dox induction, 293FRT/TO cells, read-out: 24 hr Dox Inducible TNFaFLGluc 293FRT/TO: Mean IC50; for 24 hr Dox Inducible TNFaFLGluc 293FRT/TO: TNF/PD1: ratio of TNFaFLGluc IC50 to PD1ssGluc IC50
# Summary of the method: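 Compound was added with doxycycline to cells plated a day earlier, incubating at 37° C under 5% CO2. The reporter line is 293 T-REx expressing a TNFα (1-233)–Gaussia luciferase fusion under tetracycline-regulated control.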
# [3] = system: HER3-ss+4aa/Gaussia Luciferase; experiment: Dox-Induced Her3-ss-Gluc Assay; assay type: cell-based
# Summary of the method: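 Compounds were diluted in DMSO/media containing doxycycline. They were added to Flp-In 293 T-REx cells plated the previous day, then incubated at 37 °C under 5% CO2. These cells stably express, under T-REx control, Gaussia luciferase fused to the HER3 signal sequence plus 4 amino acids.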
# [4] = system: IL-2-FL/Gaussia Luciferase; experiment: Dox Induced IL2-FL-Gluc Assay; assay type: cell-based; details: for IC50: 24 hr Dox induction, 293FRT/TO cells, read-out: 24 hr Dox Inducible IL2FLGluc 293FRT/TO: Mean IC50; for 24 hr Dox Inducible IL2FLGluc 293FRT/TO: IL2/PD1: ratio of IL2FLGluc IC50 to PD1ssGluc IC50
# Summary of the method: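 Compounds in DMSO/medium with doxycycline were applied to a 293 T-REx stable line expressing an IL-2 (aa 1-153)–Gaussia luciferase fusion under tetracycline-regulated control, cells seeded one day earlier; incubation at 37 °C, 5% CO2. Structures drawn without stereochemistry were tested as stereoisomer mixtures.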
# [5] = system: multiple myeloma cell line NCI-H929; experiment: H929 Cell Viability Assay; assay type: cell-based, human; details: Homo sapiens, NCI-H929 cells, Celltiter-Glo
# Summary of the method: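 Luminescent CellTiter-Glo read-out of viability after a 48 h exposure (37° C, 5% CO2) of NCI-H929 myeloma cells to compound dilutions in RPMI 1640 plus 10% FBS. Data for structures drawn without stereochemistry refer to stereoisomer mixtures.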
# [6] = system: multiple myeloma cell line U266B1; experiment: U266 Cell Viability Assay; assay type: cell-based, human; details: Homo sapiens, U266B1 cells, Celltiter-Glo
# Summary of the method: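 CellTiter-Glo luminescence was read after a 48 h compound exposure (37 °C, 5% CO2) of human U266B1 myeloma cells grown in 10% FBS-supplemented RPMI 1640. Data for structures shown without defined stereochemistry refer to stereoisomer mixtures.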
# [7] = Liver Microsome Stability Assay (rat); details: rat liver microsomes, with NADPH, 1.0 uM compound
# Description: (§1) Stability of a compound was assessed in the presence of liver microsomes from various sources—mouse, rat, monkey and human liver microsomes. 1.0 uM compound, 0.4% DMSO in 0.1 M Potassium Phosphate with 1.0 mg/mL liver microsomes, were incubated at 37° C. with or without 1 mM NADPH. The samples were quenched at 0, and 30 minutes.
# [8] = Liver Microsome Stability Assay (mouse); details: mouse liver microsomes, with NADPH, 1.0 uM compound
# Description: as §1
# [9] = Liver Microsome Stability Assay (human); details: human liver microsomes, with NADPH, 1.0 uM compound
# Description: as §1
# [10] = Liver Microsome Stability Assay (monkey); details: monkey liver microsomes, with NADPH, 1.0 uM compound
# Description: as §1
# [11] = 24 hr Dox induction; 293FRT/TO cells; mean; read-out: 24 hr Dox Inducible PD1ssGluc 293FRT/TO: Mean IC50
# [12] = '<=>' given where both are I.A.
# [13] = 24 hr Dox induction; 293FRT/TO cells; mean; read-out: 24 hr Dox Inducible Her3(ss + 4)Gluc 293FRT/TO: Mean IC50
# [14] = 24 hr Dox induction; 293FRT/TO cells; read-out: 24 hr Dox Inducible PD1ssGluc 293FRT/TO: Mean IC50
# [15] = 24 hr Dox induction; 293FRT/TO cells; read-out: 24 hr Dox Inducible Her3(ss + 4)Gluc 293FRT/TO: Mean IC50
"IC50 [1, 11]",IC50 ([2]; mean),"IC50 [3, 13]",IC50 ([4]; mean),"EC50 ([5]; NCI-H929, 48 h)","EC50 ([6]; U-266, 48 h)",Liver Microsome Stability (Multiple Species): Rat - % Remaining after 30 min w/NADPH [7],Liver Microsome Stability (Multiple Species): Mouse - % Remaining after 30 min w/NADPH [8],Liver Microsome Stability (Multiple Species): Human - % Remaining after 30 min w/NADPH [9],Liver Microsome Stability (Multiple Species): Monkey - % Remaining after 30 min w/NADPH [10],"IC50 [1, 14]",IC50 [2],"IC50 [3, 15]",IC50 [4],SMILES,"24 hr Dox Inducible TNFaFLGluc 293FRT/TO: TNF/PD1 [2, 12]","24 hr Dox Inducible IL2FLGluc 293FRT/TO: IL2/PD1 [4, 12]",24 hr Dox Inducible TNFaFLGluc 293FRT/TO: TNF/PD1 [2],24 hr Dox Inducible IL2FLGluc 293FRT/TO: IL2/PD1 [4],also measured
,,,,16.9 µM,> 25 µM,9.66%,11.7%,0.58%,0.06%,0.228 µM,> 25 µM,15.6 µM,> 25 µM,"CC(C)c1c(/C=C/c2csc(NC(=O)c3cccn3Cc3ccnc(F)c3)n2)ncn1C [Compound B81, (E)-1-((2-fluoropyridin-4-yl)methyl)-N-(4-(2-(5-isopropyl-1-methyl-1H-imidazol-4-yl)vinyl)thiazol-2-yl)-1H-pyrrole-2-carboxamide]",,,>109,>110,
,,,,> 25 µM,> 25 µM,2.29%,3.15%,15.6%,15.2%,0.625 µM,> 25 µM,> 25 µM,> 25 µM,"Cc1cc(/C=C/c2csc(NC(=O)c3cccn3Cc3ccnc(F)c3)n2)no1 [Compound B88, (E)-1-((2-fluoropyridin-4-yl)methyl)-N-(4-(2-(5-methylisoxazol-3-yl)vinyl)thiazol-2-yl)-1H-pyrrole-2-carboxamide]",,,>40.0,>40,
0.547 µM,4.06 µM,1.43 µM,1.44 µM,10.4 µM,13.9 µM,2.13%,0.55%,0.57%,5.23%,,,,,"O=C(Nc1nc([C@@H]2CCCN(c3ccccn3)C2)cs1)c1cccn1Cc1ccncc1 [Compound E47, (R)-N-(4-(1-(pyridin-2-yl)piperidin-3-yl)thiazol-2-yl)-1-(pyridin-4-ylmethyl)-1H-pyrrole-2-carboxamide]",7.43,2.6,,,

# The remaining lines, values behind:
SMILES,"IC50 [1, 11]",IC50 ([2]; mean),"IC50 [3, 13]",IC50 ([4]; mean),"EC50 ([5]; NCI-H929, 48 h)","EC50 ([6]; U-266, 48 h)",Liver Microsome Stability (Multiple Species): Rat - % Remaining after 30 min w/NADPH [7],Liver Microsome Stability (Multiple Species): Mouse - % Remaining after 30 min w/NADPH [8],Liver Microsome Stability (Multiple Species): Human - % Remaining after 30 min w/NADPH [9],Liver Microsome Stability (Multiple Species): Monkey - % Remaining after 30 min w/NADPH [10],"IC50 [1, 14]",IC50 [2],"IC50 [3, 15]",IC50 [4],"24 hr Dox Inducible TNFaFLGluc 293FRT/TO: TNF/PD1 [2, 12]","24 hr Dox Inducible IL2FLGluc 293FRT/TO: IL2/PD1 [4, 12]",24 hr Dox Inducible TNFaFLGluc 293FRT/TO: TNF/PD1 [2],24 hr Dox Inducible IL2FLGluc 293FRT/TO: IL2/PD1 [4],also measured
"N#CCC1(Cn2cccc2C(=O)Nc2nc([C@H]3CCCN3c3ccccc3)cs2)CCC1 [Compound C9, (R)-1-((1-(cyanomethyl)cyclobutyl)methyl)-N-(4-(1-phenylpyrrolidin-2-yl)thiazol-2-yl)-1H-pyrrole-2-carboxamide]",4.56 µM,> 25 µM,6.1 µM,7.54 µM,> 25 µM,> 25 µM,8.24%,0.81%,3.68%,0.38%,,,,,>5.49,1.7,,,
"Cc1ccc(/C=C/c2csc(NC(=O)c3cccn3Cc3ccnc(F)c3)n2)nc1F [Compound B49, (E)-N-(4-(2-(6-fluoro-5-methylpyridin-2-yl)vinyl)thiazol-2-yl)-1-((2-fluoropyridin-4-yl)methyl)-1H-pyrrole-2-carboxamide]",,,,,11.2 µM,> 19.1 µM,4.13%,12.5%,1.53%,1.51%,0.0274 µM,2.51 µM,0.131 µM,1.26 µM,,,91.4,46,
"O=C(Nc1nc(C2C3CN(c4ccccn4)CC32)cs1)c1cccn1Cc1ccncc1 (stereo not drawn) [Compound E33, N-(4-(3-(pyridin-2-yl)-3-azabicyclo[3.1.0]hexan-6-yl)thiazol-2-yl)-1-(pyridin-4-ylmethyl)-1H-pyrrole-2-carboxamide]",1.23 µM,> 25 µM,3.92 µM,14.8 µM,> 25 µM,> 25 µM,0.18%,2.58%,1.6%,0.1%,,,,,>20.3,12,,,
"O=C(Nc1nc([C@H]2CCCN2c2ccc(OC3CCN(C(=O)CF)CC3)cc2)cs1)c1cccn1Cc1ccnc(F)c1 [Compound A90, (R)-N-(4-(1-(4-((1-(2-fluoroacetyl)piperidin-4-yl)oxy)phenyl)pyrrolidin-2-yl)thiazol-2-yl)-1-((2-fluoropyridin-4-yl)methyl)-1H-pyrrole-2-carboxamide]",,,,,,,39.1%,21.7%,22.3%,1.3%,,0.512 µM,,0.0829 µM,,,12.4,2,"IC50 ([1]; read-out: 24 hr Dox Inducible PD1ssGluc 293FRT/TO: Mean IC50; 24 hr Dox induction; 293FRT/TO cells): 0.0415 µM; IC50 ([3]; read-out: 24 hr Dox Inducible Her3(ss + 4)Gluc 293FRT/TO: Mean IC50; 24 hr Dox induction; 293FRT/TO cells): 0.0828 µM; EC50 ([5]; 48 hr): 1.08 µM; EC50 ([6]; U-266, 48 hr): > 25 µM"
